Several values for one entry are separate records, joined by “and”; a condition that tells them apart may be missing. Equal entries are not always repeated. Where a SMILES comes first, the peptide text is derived from it. [ ]: non-standard residue; d: D form.
Tested on: pituitary
Assay: In vitro growth hormone release study (incubated rat pituitaries, GH radioimmunoassay)
Assay type: cell-based
Conditions: pituitaries of 20 day old female rats, ΔGH (I3-P2),(I4-P2), ± SEM
Protocol: Female rats of the CD-1 strain were housed in a constant temperature room at 24° C. with 14 hours light and 10 hours darkness. The rats were fed Purina brand rat chow ab libitum.
All studies were started between 0800 and 1000 hours.
Pituitaries were removed from 20 day old female rats. Two pituitaries were incubated at 36° C. in 1 ml of lactated Ringer's solution in 10 ml polytetrafluoroethylene beakers in a Dubnoff Shaker (90 cycles/min.). The pituitaries were incubated a total of 4 hours (P1, P2, I3, and I4). After two successive one hour preincubation periods (P1, P2), the peptide was added to the incubation medium hourly for 2 hours (I3, I4).
This in vitro study was performed in triplicate and a standard radioimmunoassay of growth hormone present in the incubation medium was performed in duplicate. The hormonal activity was calculated as the difference (Δ) of growth hormone (GH) levels between I3, I4 and P2, i.e., (I3 -P2) and (I4 -P2). P values were calculated by Students' t test using six growth hormone values for each value recorded.
The growth hormone radioimmunoassay reagents were distributed by the National Institute of Arthritis and […] (NIAMDD) program. The growth hormone values were calculated in terms of nanograms (ng) of a rat standard with a growth hormone potency of 0.61 units/mg.

CSCC[C@H](NC(=O)[C@H](CCCCN)NC(=O)[C@@H](Cc1ccccc1)NC(=O)[C@@H](Cc1ccccc1)NC(=O)[C@@H](N)Cc1c[nH]c2ccccc12)C(N)=O [H2 N--Trp--D-Phe--D-Phe--Lys--Met--CONH2, H2 N-Trp-D-Phe-D-Phe-Lys-Met-CONH2] (H-W[dF][dF]KM-NH2)
IN VITRO GROWTH HORMONE RELEASE (0.3μg peptide): 24 ± 24 ngΔGH/ml incubation medium
IN VITRO GROWTH HORMONE RELEASE (10μg peptide): 853 ± 138 ngΔGH/ml incubation medium and 440 ± 180 ngΔGH/ml incubation medium

Reference: patent US4228155A, “Synthetic peptides having pituitary growth hormone releasing activity” (Beckman Instruments, Inc., priority 1979, dated 1980)
